This note sets out measurements from patent US10245261B2, “Substituted indol-5-ol derivatives and their therapeutic applications” (NantBioScience, Inc., priority 2013, dated 2019).

The target of one series is JNK2α2(h) (Homo sapiens, UniProt P45984). Kind of series: KinaseProfiler kinase assay. The class given is biochemical.
The next series has as its target Flt4(h) (Homo sapiens, UniProt P35916). Kind of series: KinaseProfiler kinase assay. The series is classed as biochemical.
In another series the target is mTOR(h) (Homo sapiens, UniProt P42345). Kind of series: KinaseProfiler kinase assay. The series is classed as biochemical.
The next series has as its system CK1(y). Briefly: KinaseProfiler kinase assay. The series is classed as biochemical, yeast.
For a further series, the target named is FGFR2(h) (Homo sapiens, UniProt P21802). Briefly: KinaseProfiler kinase assay. The class given is biochemical.
In the next series the target is Ret(V804M)(h) (Homo sapiens, UniProt P07949, V804M). Briefly: KinaseProfiler kinase assay. The series is classed as biochemical. The method, boiled down:
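Compounds were serially diluted from DMSO into 20 mM MOPS buffer with EDTA, Brij-35, glycerol, β-mercaptoethanol and 1 mg/mL BSA. Reactions started with MgATP/[γ-33P]ATP, ran 40 min at room temperature, and phosphorylation was measured by scintillation counting after filtermat capture.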

For another series, the target named is DRAK1(h) (Homo sapiens, UniProt Q9UEE5). Kind of series: KinaseProfiler kinase assay. The class given is biochemical.
In a further series the target is Abl (Q252H) (h) (Homo sapiens, UniProt P00519, Q252H). Kind of series: KinaseProfiler kinase assay. The series is classed as biochemical.
A further series deals with PI3KC2α(h) (Homo sapiens, UniProt O00443). Briefly: KinaseProfiler kinase assay. The class given is biochemical.
A further series has as its target Abl (H396P) (h) (Homo sapiens, UniProt P00519, H396P). Briefly: KinaseProfiler kinase assay. The series is classed as biochemical.
For another series, the target named is PIP5K1γ(h) (Homo sapiens, UniProt O60331). Kind of series: KinaseProfiler kinase assay. The class given is biochemical.
Another series concerns the target Lck(h) (Homo sapiens, UniProt P06239). Kind of series: KinaseProfiler kinase assay. The class given is biochemical.
The next series addresses Fgr(h) (Homo sapiens, UniProt P09769). Kind of series: KinaseProfiler kinase assay. The series is classed as biochemical.
For another series, the target named is CaMKIIδ(h) (Homo sapiens, UniProt Q13557). Kind of series: KinaseProfiler kinase assay. The class given is biochemical.
The test system of another series is AN3.CA. Briefly: CellTiterBlue cell growth inhibition. Conditions: Homo sapiens, 72 hours. The class given is cell-based. The method, then:
(§1) This example illustrated the proliferating cell growth inhibition of selected compounds from this invention. To do this, the cells were seeded into fresh Iscove's growth medium at a density of 0.4e6 cells/ml and grown in log phase for 24 hr. Cells were then resuspended in their fresh respective growth media at 0.1e^6 cells/ml and plated into 384 well black, clear-bottom microplates at 36 ul/well. Test compounds and controls were initially dissolved in DMSO at the desired concentration, then serially diluted to the assay buffer. These solutions were added and cells were incubated for 72 hours at 37° C. CellTiterBlue (Promega cat# G7572) was added on the Beckman FX. Plates were returned to the 37° C. CO2 incubator for 4 hr and then fluorescence was determined on the Victor plate reader. Data were processed using Microsoft Excel, and GI50 values were generated using Prism (GraphPad Software, San Diego, Calif.).

The next series relates to RS4.11. Kind of series: CellTiterBlue cell growth inhibition. Conditions: Homo sapiens; RS4.11, 72 hours. The class given is cell-based. The method, then: as §1
Background: Alamar Blue is a resazurin reagent that responds to reducing activity.

Another series deals with KU812. Briefly: CellTiterBlue cell growth inhibition. Conditions: Homo sapiens; KU812, 72 hours. The series is classed as cell-based. The method, then:
as §1

For another series, the system named is TT. Briefly: CellTiterBlue cell growth inhibition. Conditions: Homo sapiens, 72 hours. The class given is cell-based. The method, then:
as §1

The next series concerns Kato III. Briefly: CellTiterBlue cell growth inhibition. Conditions: Homo sapiens, 72 hours. The class given is cell-based. The method, then: as §1
The next series concerns the target PI3 Kinase (p120γ)(h) (Homo sapiens, UniProt P48736). Briefly: KinaseProfiler kinase assay. The series is classed as biochemical.
Series [1] deals with human MV411 human acute myelogenous leukemia (AML) xenograft. Kind of series: AML xenograft model in female SCID mice. The class given is in vivo, mouse. The method, then: The objective of the first study was to evaluate antitumor activities of the novel multiple-kinase inhibitor NTW-3475 against human MV411 human acute myelogenous leukemia (AML) xenograft model in female SCID mice.
Four or six animals were randomly assigned to each study group. Each animal was injected subcutaneously in the left and right flank area with 0.1 ml of 1.0×10^8 MV411 cells per mL.
Each test or control animal was placed on a 5-day on, two-day off for two cycles of vehicle negative control or 25, 50 mg/kg of NTW-3475. Tumor growth was measured with a digital hand held caliper twice weekly (once tumor emerges) prior to the first dosing and then two to three times weekly until euthanized. Animals were weighed prior to tumor cell injection, prior to dosing, two to three times weekly with tumor growth measurements, and prior to euthanasia.
The objective of the first study was to evaluate antitumor activities of the novel multiple-kinase inhibitor Compounds 11, 68, and 82 against human MV411 human acute myelogenous leukemia (AML) xenograft model in female SCID mice.
Each test or control animal was placed on a 5-day on, two-day off for two cycles of vehicle negative control or 25, 50 mg/kg of compound. Tumor growth was measured with a digital hand held caliper twice weekly (once tumor emerges) prior to the first dosing and then two to three times weekly until euthanized. Animals were weighed prior to tumor cell injection, prior to dosing, two to three times weekly with tumor growth measurements, and prior to euthanasia.

The structures appear in SMILES notation. pIC50: −log10 of the molar value.

As usually defined, the inhibition is the relative decrease from the control value, in per cent. In general, GI50 refers to the concentration at which growth is held to half of that of the control. Low values mean greater sensitivity of the cells, high ones lower sensitivity of the cells. As usually defined, the pIC50 is the negative decadic logarithm of the IC50, by convention in mol/L. Read a low pIC50 as a large IC50.

Sequence of Ret(V804M)(h) (P07949 29-1114 V804M): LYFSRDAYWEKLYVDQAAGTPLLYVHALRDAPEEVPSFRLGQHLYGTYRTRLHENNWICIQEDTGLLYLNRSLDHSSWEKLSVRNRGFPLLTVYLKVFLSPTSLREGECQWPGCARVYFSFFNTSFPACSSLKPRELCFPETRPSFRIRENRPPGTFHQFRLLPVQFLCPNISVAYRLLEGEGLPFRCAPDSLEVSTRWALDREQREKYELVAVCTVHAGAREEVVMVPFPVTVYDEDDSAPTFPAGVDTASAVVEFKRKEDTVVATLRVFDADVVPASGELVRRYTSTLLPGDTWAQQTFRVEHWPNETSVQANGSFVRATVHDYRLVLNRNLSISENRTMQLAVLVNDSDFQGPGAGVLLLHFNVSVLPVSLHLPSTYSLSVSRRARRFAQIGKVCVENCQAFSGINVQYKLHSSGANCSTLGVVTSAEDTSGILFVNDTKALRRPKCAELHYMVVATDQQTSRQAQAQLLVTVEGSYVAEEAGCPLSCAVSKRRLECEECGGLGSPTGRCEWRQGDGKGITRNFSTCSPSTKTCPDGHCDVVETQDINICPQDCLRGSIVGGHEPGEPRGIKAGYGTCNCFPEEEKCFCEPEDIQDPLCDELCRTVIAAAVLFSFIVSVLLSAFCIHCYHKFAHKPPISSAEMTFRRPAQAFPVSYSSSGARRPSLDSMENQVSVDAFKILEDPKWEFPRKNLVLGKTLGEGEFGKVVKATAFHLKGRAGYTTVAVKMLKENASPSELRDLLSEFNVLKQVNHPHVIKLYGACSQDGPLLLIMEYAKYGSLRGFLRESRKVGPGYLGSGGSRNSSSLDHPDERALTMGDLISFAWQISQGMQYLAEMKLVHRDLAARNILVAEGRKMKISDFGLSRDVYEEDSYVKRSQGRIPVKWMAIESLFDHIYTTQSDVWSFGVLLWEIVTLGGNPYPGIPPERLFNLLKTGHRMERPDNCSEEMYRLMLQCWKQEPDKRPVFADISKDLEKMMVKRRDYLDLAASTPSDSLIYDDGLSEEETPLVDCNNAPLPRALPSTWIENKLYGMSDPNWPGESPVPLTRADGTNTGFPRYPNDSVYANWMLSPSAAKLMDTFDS
Sequence of Flt4(h) (P35916 25-1363): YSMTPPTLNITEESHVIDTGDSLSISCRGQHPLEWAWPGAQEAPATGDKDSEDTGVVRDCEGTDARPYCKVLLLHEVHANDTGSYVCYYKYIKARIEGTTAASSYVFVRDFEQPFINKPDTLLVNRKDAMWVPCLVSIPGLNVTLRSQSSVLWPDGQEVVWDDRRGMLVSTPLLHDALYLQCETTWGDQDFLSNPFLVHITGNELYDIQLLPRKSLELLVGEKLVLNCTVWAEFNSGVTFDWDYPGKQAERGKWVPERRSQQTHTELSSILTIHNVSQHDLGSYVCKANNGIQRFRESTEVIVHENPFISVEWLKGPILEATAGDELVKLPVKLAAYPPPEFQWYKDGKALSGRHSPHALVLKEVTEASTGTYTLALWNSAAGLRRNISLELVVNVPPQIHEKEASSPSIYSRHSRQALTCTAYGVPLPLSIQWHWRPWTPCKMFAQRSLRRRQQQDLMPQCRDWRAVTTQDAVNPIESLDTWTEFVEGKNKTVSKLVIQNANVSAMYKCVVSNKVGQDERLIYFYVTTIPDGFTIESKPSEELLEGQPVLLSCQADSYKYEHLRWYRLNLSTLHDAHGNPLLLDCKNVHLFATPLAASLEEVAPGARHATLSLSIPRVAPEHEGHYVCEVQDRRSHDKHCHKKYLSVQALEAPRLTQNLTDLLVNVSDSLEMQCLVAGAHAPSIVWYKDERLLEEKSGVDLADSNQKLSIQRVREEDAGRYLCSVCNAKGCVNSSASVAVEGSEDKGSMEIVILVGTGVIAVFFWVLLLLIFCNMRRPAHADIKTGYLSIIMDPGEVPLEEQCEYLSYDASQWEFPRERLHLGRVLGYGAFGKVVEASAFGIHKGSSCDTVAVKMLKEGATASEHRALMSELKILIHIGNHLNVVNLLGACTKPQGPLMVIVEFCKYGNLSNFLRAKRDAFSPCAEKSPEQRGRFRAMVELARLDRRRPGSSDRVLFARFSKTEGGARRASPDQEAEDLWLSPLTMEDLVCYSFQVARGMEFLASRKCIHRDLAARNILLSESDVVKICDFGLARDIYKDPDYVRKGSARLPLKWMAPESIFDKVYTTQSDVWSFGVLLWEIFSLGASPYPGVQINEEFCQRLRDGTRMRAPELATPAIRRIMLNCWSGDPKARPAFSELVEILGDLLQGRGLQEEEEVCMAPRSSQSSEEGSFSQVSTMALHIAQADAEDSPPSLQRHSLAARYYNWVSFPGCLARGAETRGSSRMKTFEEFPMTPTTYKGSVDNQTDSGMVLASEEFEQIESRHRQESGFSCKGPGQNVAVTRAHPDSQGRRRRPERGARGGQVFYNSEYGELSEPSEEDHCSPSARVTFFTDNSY
Sequence of FGFR2(h) (P21802 22-821): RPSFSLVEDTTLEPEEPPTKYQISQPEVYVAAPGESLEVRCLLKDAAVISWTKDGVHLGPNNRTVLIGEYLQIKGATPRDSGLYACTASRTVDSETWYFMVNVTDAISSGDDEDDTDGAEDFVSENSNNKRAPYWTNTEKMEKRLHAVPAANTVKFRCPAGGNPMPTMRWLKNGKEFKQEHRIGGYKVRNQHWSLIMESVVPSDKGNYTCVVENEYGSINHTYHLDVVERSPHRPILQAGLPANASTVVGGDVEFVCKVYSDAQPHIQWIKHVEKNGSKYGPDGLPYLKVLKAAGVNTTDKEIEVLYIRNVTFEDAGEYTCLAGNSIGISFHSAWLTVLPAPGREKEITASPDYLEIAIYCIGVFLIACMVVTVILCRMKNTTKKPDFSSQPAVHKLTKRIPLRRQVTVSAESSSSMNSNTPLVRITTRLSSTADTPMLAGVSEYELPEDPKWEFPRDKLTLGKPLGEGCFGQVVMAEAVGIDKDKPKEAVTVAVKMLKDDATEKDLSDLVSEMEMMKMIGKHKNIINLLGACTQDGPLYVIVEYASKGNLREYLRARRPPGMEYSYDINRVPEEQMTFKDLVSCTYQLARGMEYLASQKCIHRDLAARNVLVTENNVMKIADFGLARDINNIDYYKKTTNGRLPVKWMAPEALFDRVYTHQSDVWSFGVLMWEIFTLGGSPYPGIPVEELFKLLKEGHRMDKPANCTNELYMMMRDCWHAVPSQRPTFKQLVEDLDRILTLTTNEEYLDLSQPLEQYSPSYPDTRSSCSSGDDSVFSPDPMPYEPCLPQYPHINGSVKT
Sequence of PIP5K1γ(h) (O60331 whole entry): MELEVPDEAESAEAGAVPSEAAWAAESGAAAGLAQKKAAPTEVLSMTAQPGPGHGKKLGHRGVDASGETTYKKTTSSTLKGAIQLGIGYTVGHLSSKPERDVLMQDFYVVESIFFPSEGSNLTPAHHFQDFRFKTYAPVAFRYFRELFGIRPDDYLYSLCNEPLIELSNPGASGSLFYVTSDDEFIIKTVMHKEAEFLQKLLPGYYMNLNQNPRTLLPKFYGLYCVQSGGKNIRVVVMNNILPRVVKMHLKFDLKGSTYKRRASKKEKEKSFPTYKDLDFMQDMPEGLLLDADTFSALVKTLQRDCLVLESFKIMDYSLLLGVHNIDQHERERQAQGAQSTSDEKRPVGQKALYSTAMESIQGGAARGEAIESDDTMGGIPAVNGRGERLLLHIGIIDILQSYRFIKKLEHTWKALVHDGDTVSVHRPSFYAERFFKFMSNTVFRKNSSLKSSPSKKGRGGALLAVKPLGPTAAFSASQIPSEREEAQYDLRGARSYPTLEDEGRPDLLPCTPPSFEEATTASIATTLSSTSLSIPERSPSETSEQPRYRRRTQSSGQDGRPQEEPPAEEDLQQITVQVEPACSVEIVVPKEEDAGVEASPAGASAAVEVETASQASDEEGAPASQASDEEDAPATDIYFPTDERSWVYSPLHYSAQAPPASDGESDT
Sequence of Fgr(h) (P09769 whole entry): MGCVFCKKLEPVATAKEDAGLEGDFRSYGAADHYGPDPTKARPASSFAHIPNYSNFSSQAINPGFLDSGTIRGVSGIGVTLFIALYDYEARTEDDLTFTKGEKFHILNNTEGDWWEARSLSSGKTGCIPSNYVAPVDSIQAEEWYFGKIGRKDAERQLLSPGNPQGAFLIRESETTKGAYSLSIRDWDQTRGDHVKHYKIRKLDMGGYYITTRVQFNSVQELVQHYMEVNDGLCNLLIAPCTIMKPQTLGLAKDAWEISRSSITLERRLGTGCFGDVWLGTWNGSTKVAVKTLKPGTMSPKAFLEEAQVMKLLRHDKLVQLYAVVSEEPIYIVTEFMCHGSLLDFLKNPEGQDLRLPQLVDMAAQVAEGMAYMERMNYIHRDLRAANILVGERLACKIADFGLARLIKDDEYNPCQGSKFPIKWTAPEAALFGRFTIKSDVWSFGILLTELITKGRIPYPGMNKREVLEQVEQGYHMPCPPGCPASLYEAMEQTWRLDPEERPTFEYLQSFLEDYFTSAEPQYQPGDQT
Sequence of Lck(h) (P06239 whole entry): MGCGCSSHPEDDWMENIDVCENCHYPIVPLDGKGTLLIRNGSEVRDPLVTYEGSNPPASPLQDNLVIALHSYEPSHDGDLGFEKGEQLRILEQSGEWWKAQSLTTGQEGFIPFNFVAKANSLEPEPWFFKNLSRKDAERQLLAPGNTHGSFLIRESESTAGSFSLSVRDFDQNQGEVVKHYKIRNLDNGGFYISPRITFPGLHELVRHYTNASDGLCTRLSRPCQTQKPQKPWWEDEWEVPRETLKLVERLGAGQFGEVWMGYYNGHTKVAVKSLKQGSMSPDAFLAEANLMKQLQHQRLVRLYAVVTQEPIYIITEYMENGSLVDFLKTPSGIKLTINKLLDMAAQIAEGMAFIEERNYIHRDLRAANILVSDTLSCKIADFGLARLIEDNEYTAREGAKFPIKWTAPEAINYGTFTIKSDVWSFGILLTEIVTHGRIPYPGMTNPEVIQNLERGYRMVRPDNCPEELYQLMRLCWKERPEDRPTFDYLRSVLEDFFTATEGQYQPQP

Regarding `Cc1cc2c(F)c(Oc3nc(Nc4cc(C5CC5)[nH]n4)cc(N4CCN(C)CC4)n3)ccc2[nH]1` [Compound 10], the inhibition at 0.1 µM is -20% on JNK2α2(h); 100% against Flt4(h); 25% against mTOR(h); 99% against FGFR2(h); 96% at Ret(V804M)(h); 36% against DRAK1(h). The inhibition at 0.1 µM at Abl (Q252H) (h) is 99%; against PI3KC2α(h) it was 15%; against Abl (H396P) (h), 99%; against PIP5K1γ(h), -8%; against Lck(h), 99%; against Fgr(h), 97%. For the same compound, the figures for the inhibition at 0.1 µM against CaMKIIδ(h) and against PI3 Kinase (p120γ)(h) were -6% and -2%, respectively. Besides, the “% inhibition @ 0.1 μM” value with CK1(y) amounted to 17%. Also, the concentration for 50% growth inhibition (GI50) is 3 nM in the series with AN3.CA; 3.22 nM in the series on RS4.11; less than 0.025 nM with KU812; 8.3 nM in the series with TT; 0.07 nM with Kato III.

Turning to `Cc1cc2c(F)c(Oc3nc(Nc4cc(C5CC5)[nH]n4)cc(N4CCNCC4)n3)ccc2[nH]1` [Compound 11, N-(5-cyclopropyl-1H-pyrazol-3-yl)-2-((4-fluoro-2-methyl-1H-indol-5-yl)oxy)-6-(piperazin-1-yl)pyrimidin-4-amine], the inhibition at 0.1 µM against JNK2α2(h) was -16%; at Flt4(h), 100%; on mTOR(h), 18%; against FGFR2(h), 99%; at Ret(V804M)(h), 101%; on DRAK1(h) it was 42%. The inhibition at 0.1 µM against Abl (Q252H) (h) is 102%; against PI3KC2α(h) it was -5%; on Abl (H396P) (h) it was 102%; on PIP5K1γ(h) it was -5%; against Lck(h), 98%; at Fgr(h) it was 100%. The inhibition at 0.1 µM on CaMKIIδ(h) is 6%; against PI3 Kinase (p120γ)(h), -1%. In [1], the anti-tumor effect result is on record as “strong anti-tumor effect”. Besides, in series [1], the body weight change result is “minimal body weight lost”. Besides, the “% inhibition @ 0.1 μM” value with CK1(y) is 4%. In addition, the GI50 in the series with RS4.11 was determined as 3.16 nM; with KU812, 1.61 nM.

Consider `C/C=C/c1cc(Nc2cc(N3CCN(C)CC3)nc(Oc3ccc4[nH]c(C)cc4c3F)n2)n[nH]1` [Compound 53], for which the pIC50 is 8.70 at Flt4(h) (VEGFR3); 8.70 on FGFR2(h) (FGFR2); 8.22 against Ret(V804M)(h) (Ret(V804M mutation)); 9.30 against Abl (Q252H) (h) (Abl (Q252H)); greater than 10.00 at Abl (H396P) (h) (Abl (H396P)). In addition, the GI50 turned out to be 0.78 nM in the series on AN3.CA; 11 nM in the series on RS4.11; 0.24 nM in the series on KU812; 3.5 nM in the series on TT; 0.06 nM with Kato III.

As to `C/C=C/c1cc(Nc2cc(N3CCNCC3)nc(Oc3ccc4[nH]c(C)cc4c3F)n2)n[nH]1` [Compound 68], in series [1], the anti-tumor effect entry was “strong anti-tumor effect” and the body weight change entry is recorded as “minimal body weight lost”. For the same compound, the GI50 in the series on AN3.CA worked out at 0.88 nM. Moreover, growth in the series on TT was halved (GI50) at 1.9 nM.

Consider `Cc1cc2c(F)c(Oc3nc(Nc4cc(C5CC5)[nH]n4)cc(N4CCNCC4)n3)cc(F)c2[nH]1` [Compound 82], for which the anti-tumor effect result in series [1] was “strong anti-tumor effect”. In addition, in series [1], the body weight change result is on record as “minimal body weight lost”. In addition, the values for the GI50 with RS4.11 and with KU812 were 2.65 nM and 0.75 nM, respectively.

Regarding `C/C=C/c1cc(Nc2cc(N3CCN(CCO)CC3)nc(Oc3cc(F)c4[nH]c(C)cc4c3F)n2)n[nH]1` [Compound 88], the GI50 in the series on AN3.CA amounted to 0.31 nM; in the series with RS4.11, 3.71 nM; in the series on KU812 it was 0.71 nM; in the series on TT, 3.4 nM; in the series on Kato III, 0.06 nM.

As for `C/C=C/c1cc(Nc2cc(N3CCN(C)CC3)nc(Oc3cc(F)c4[nH]c(C)cc4c3F)n2)n[nH]1` [NTW-3456], the anti-tumor effect result in series [1] is listed as “significant anti-tumor activity”.
